Assays:
[1] = target: PI3K-α (PIK3CA) in MDA-MB-453 cells (Homo sapiens, UniProt P42336); assay: PI3K-alpha kinase (PIK3CA) in vitro cell based assay, MDA-MB-453 cells, SureFire Ultra AlphaLisa; details: read-out: PI3K-α (PIK3CA) in vitro cell based assay IC50
Protocol: PI3K-Alpha Kinase (PIK3CA) Activity In Vitro Cell Based Assay and Determining IC50 Values for Inhibitors
The MDA-MB-453 (ATCC-HTB-131) cell line was obtained from the American Type Culture Collection (Manassas, VA). Cells were maintained in Dulbecco's Modified Eagle Media (DMEM, Gibco 11965-092) supplemented with 10% Fetal Bovine Serum, heat inactivated (FBS HI, Gibco 10082-147), 1× non-essential amino acids (NEAA, Gibco 11140-050), and 1 mM sodium pyruvate (Gibco 11360-070). Cultures were maintained in a humidified incubator at 37° C. under 5% CO2/95% air.
For compound testing in 0% FBS, MDA-MB-453 cells were seeded at a density of 1.5×10^4 cells per well in white 384-well plates in 20 μl of Minimum Essential Media (MEM) assay media with 1×NEAA, 1 mM sodium pyruvate, and 1 μg/mL human insulin (Sigma I9278). Compounds dissolved in 10 mM stock solutions in DMSO were serially diluted 1:3 in DMSO to generate a 10-point dilution series and plated using an acoustic liquid handler system (Echo 550 Series Liquid Handler, Labcyte). A 5× intermediate compound dilution plate in MEM with 1×NEAA and 1 mM sodium pyruvate (150 μM starting compound concentration in 1.5% DMSO) was then prepared. Five μl of the intermediate serially diluted compounds were added to the cell plate to final concentrations ranging from […] in 0.3% DMSO. 0.3% DMSO alone was used to establish the maximum (MAX) signal and GDC-0032 at a final concentration of 1 μM was used as a reference compound for the minimum (MIN) signal. After 3 hours treatment, the medium was removed, and the cells lysed in 10 μL of 1× SureFire Lysis buffer with shaking for 10 minutes at room temperature. The Acceptor Mix (Reaction Buffer 1+Reaction Buffer 2+Activation Buffer+SureFire Ultra Acceptor Beads) was prepared by diluting Activation buffer 25-fold in combined Reaction Buffer 1 and Reaction Buffer 2. The Acceptor beads were diluted 50-fold in the combined Reaction Buffers. Five μL of Acceptor Mix was added to each well, the plate was sealed and covered with foil and incubated for 1 hour at room temperature. The Donor Mix (dilution buffer+SureFire Ultra Donor Beads) was prepared by diluting Donor Beads 50-fold in dilution buffer. Five μL of the Donor Mix was added to each well and the plate sealed and covered with foil and incubated for 1 hour at room temperature in the dark. The plates were read on a Neo2 plate reader instrument from Biotek using standard AlphaLisa settings. Compounds were tested in duplicate and the average % inhibition at each compound concentration was used to generate a single dose response curve. The data were processed using the Genedata-Screener tool. Relative IC50 values were determined using luminescence units by calculating percent inhibition with respect to the in-plate “MIN” (GDC-0032 reference control) and “MAX” (DMSO) controls. The data was analyzed using a 4-parameter nonlinear logistic equation (four-parameter logistic concentration-response curve): Y=bottom+[(top−bottom)/1+(X/IC50)slope] where Y=% inhibition, X=concentration of inhibitor, bottom=minimum value of y attained by curve-fit, top=maximum value of y attained by curve-fit and slope=steepness of curve at the IC50. % Inhibition=[(signal at X−median Min)/(median Max−median Min)]×100 IC50: concentration of compound that reduces a given response (ligand binding, enzyme response) by 50%. Relative IC50: concentration giving half the compound's maximum response.

[2] = target: T1, PI3K-α (PIK3CA) wild-type (WT), p110α/p85α complex (Homo sapiens, UniProt P42336); assay: PI3K-alpha kinase (PIK3CA) biochemical activity, ADP-Glo, wild-type; details: Soy PI lipid substrate
T1 construct: Recombinant, catalytically active human full length PIK3KA Wild-type and H1047R mutant; 6×His (N); purchased EMD Millipore Sigma 14-602M
Method in brief: (§1)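 ADP formation measured by ADP-Glo luminescence after reaction at 27 °C to about 10% ATP turnover, using 20 uM ATP, 50 uM PIP2diC8 or soy PI lipid, HEPES pH 7.4 with MgCl2. Enzyme (1-5 nM WT or H1047R p110α/p85α) and compound preincubated 1 h first; 10-point 1:3 curves fitted four-parameter for IC50.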

[3] = target: T2, PI3K-α (PIK3CA) H1047R mutant, p110α/p85α complex (Homo sapiens, UniProt P42336, H1047R); assay: PI3K-alpha kinase (PIK3CA) biochemical activity, ADP-Glo, H1047R mutant; details: Soy PI lipid substrate
T2 construct: Recombinant, catalytically active human full length PIK3KA Wild-type and H1047R mutant; 6×His (N); purchased EMD Millipore Sigma 14-792M
Method in brief: as §1

T2 sequence (P42336 whole entry H1047R): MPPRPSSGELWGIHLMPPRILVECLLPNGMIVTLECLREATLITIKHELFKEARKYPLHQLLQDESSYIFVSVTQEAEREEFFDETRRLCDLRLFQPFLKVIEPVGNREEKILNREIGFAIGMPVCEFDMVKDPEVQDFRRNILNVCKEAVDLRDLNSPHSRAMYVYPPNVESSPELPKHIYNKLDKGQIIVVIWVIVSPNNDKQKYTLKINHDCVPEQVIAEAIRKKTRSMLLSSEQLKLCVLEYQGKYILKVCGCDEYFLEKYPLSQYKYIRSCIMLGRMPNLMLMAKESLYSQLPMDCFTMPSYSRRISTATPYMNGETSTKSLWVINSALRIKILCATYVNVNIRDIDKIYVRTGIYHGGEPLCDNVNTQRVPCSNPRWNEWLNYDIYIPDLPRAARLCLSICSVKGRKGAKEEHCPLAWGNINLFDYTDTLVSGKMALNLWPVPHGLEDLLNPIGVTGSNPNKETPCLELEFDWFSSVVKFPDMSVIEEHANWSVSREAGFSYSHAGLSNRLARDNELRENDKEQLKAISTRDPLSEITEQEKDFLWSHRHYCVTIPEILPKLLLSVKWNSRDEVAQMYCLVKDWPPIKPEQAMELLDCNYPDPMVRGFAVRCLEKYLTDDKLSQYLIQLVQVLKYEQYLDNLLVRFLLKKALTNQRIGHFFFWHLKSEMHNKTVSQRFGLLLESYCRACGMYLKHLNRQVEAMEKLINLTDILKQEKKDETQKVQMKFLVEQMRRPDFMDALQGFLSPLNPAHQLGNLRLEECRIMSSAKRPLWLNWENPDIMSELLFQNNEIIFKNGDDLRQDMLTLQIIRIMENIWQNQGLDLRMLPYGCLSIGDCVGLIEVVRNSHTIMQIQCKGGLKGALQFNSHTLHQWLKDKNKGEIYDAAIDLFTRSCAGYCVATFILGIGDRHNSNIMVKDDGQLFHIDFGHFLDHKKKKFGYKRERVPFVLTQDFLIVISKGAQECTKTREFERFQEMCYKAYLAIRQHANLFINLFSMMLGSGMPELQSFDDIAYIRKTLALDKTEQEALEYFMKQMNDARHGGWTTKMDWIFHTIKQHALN
T2 sequence (P27986 whole entry partner): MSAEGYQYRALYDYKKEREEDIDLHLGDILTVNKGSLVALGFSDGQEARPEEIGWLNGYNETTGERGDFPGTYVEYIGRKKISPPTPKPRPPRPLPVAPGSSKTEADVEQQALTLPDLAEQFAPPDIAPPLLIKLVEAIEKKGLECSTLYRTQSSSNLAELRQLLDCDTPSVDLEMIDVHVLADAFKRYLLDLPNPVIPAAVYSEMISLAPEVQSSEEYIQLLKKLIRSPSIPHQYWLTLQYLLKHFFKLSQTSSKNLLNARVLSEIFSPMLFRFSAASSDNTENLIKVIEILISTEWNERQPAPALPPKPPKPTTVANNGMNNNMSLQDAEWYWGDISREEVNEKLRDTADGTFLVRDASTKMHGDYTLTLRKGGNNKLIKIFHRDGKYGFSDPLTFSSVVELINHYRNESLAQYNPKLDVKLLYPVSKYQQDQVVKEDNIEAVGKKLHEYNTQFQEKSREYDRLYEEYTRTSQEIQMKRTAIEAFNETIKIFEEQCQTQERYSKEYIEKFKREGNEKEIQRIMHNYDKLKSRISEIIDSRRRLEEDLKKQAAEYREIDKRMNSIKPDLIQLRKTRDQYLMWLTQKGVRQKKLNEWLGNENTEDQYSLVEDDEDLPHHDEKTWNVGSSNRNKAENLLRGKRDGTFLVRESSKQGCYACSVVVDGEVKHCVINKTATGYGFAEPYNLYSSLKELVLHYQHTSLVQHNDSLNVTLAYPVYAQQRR
Sequence of PI3K-α (PIK3CA) in MDA-MB-453 cells (P27986 2-724): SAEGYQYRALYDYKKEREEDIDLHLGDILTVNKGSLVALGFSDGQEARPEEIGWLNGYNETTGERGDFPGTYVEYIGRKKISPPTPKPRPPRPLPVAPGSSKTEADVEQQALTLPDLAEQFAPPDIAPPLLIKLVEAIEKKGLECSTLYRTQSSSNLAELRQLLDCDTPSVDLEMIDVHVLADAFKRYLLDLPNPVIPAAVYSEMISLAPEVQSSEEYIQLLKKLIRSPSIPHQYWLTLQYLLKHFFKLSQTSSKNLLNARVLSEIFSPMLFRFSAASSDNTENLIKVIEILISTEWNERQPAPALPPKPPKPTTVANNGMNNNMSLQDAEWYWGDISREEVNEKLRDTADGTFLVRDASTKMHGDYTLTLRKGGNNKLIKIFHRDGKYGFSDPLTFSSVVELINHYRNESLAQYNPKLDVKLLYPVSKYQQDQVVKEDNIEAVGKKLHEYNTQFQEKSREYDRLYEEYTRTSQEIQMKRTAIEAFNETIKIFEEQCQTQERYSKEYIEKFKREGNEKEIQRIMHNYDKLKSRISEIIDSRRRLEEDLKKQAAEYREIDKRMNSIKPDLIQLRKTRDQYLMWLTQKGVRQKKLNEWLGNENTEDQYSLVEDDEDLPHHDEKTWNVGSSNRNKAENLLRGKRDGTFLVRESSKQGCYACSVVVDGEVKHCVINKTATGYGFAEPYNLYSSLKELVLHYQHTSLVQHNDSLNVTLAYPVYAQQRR
Sequence of PI3K-α (PIK3CA) in MDA-MB-453 cells (P42336 whole entry): as the sequence (P42336 whole entry H1047R) above, with R1047H counted along it

Row | Structure (SMILES) | IC50 [1] [nM] | IC50 [2] [nM] | IC50 [3] [nM]
1 | Cc1cc(C(C)Nc2ccccc2C(=O)O)c2oc(-c3cnn4cccnc34)cc(=O)c2c1 (single isomer, unassigned) [Example 34, 2-[1-(6-Methyl-4-oxo-2-pyrazolo[1,5-a]pyrimidin-3-yl-chromen-8-yl)ethylamino]benzoic acid] | 50 to 100 | 1000 to 5000 | < 500
2 | Cc1cc(C(C)Nc2ccccc2C(=O)O)c2oc(-c3ccc4nccn4n3)cc(=O)c2c1 (single isomer, unassigned) [Example 35, 2-[1-(2-Imidazo[1,2-b]pyridazin-6-yl-6-methyl-4-oxo-chromen-8-yl)ethylamino]benzoic acid] | > 500 | 5000 to 10000 | 5000 to 10000
3 | Cc1cc(C(C)Nc2ccccc2C(=O)O)c2oc(-c3ccc4nc(C)cn4c3)cc(=O)c2c1 (single isomer, unassigned) [Example 37, 2-[1-[6-Methyl-2-(2-methylimidazo[1,2-a]pyridin-6-yl)-4-oxo-chromen-8-yl]ethylamino]benzoic acid] | > 500 | 1000 to 5000 | > 10000
4 | Cc1cc(C(C)Nc2ccccc2C(=O)O)c2oc(-c3cc4ccncc4o3)cc(=O)c2c1 (single isomer, unassigned) [Example 40, 2-[1-(2-Furo[2,3-c]pyridin-2-yl-6-methyl-4-oxo-chromen-8-yl)ethylamino]benzoic acid] | 100 to 500 | 5000 to 10000 | 1000 to 5000
5 | Cc1cc(C(C)Nc2ccccc2C(=O)O)c2oc(-n3ncc4ccccc43)cc(=O)c2c1 (single isomer, unassigned) [Example 49, 2-[1-(2-Indazol-1-yl-6-methyl-4-oxo-chromen-8-yl)ethylamino]benzoic acid] | < 50 | 500 to 1000 | < 500
6 | Cc1cn2cc(-c3cc(=O)c4cc(F)cc(C(C)Nc5ccccc5C(=O)O)c4o3)ccc2n1 (single isomer, unassigned) [Example 51, 2-[1-[6-Fluoro-2-(2-methylimidazo[1,2-a]pyridin-6-yl)-4-oxo-chromen-8-yl]ethylamino]benzoic acid] | < 50 | 1000 to 5000 | < 500
7 | Cc1cc(C(C)Nc2ccccc2C(=O)O)c2oc(-c3cc4ccccc4[nH]3)c(C)c(=O)c2c1 (single isomer, unassigned) [Example 52, 2-[1-[2-(1H-Indol-2-yl)-3,6-dimethyl-4-oxo-chromen-8-yl]ethylamino]benzoic acid] | < 50 | 500 to 1000 | < 500
8 | Cc1cc(C(C)Nc2ccccc2C(=O)O)c2oc(-c3ccc4nn(C)cc4n3)cc(=O)c2c1 (single isomer, unassigned) [Example 54, 2-[1-[6-Methyl-2-(2-methylpyrazolo[4,3-b]pyridin-5-yl)-4-oxo-chromen-8-yl]ethylamino]benzoic acid] | < 50 | 1000 to 5000 | < 500
9 | CC(Nc1ccccc1C(=O)O)c1cc(F)cc2c(=O)cc(-c3ccc4nn(C)cc4c3)oc12 (single isomer, unassigned) [Example 55, 2-[1-[6-Fluoro-2-(2-methylindazol-5-yl)-4-oxo-chromen-8-yl]ethylamino]benzoic acid] | < 50 | 1000 to 5000 | < 500
10 | Cc1cc(C(C)Nc2ccccc2C(=O)O)c2oc(-c3ccn4nncc4c3)cc(=O)c2c1 (single isomer, unassigned) [Example 58, 2-[1-[6-Methyl-4-oxo-2-(triazolo[1,5-a]pyridin-5-yl)chromen-8-yl]ethylamino]benzoic acid] | 100 to 500 | 1000 to 5000 | < 500
11 | Cc1cc(C(C)Nc2ccccc2C(=O)O)c2oc(-c3ccc4[nH]ncc4c3)cc(=O)c2c1 (single isomer, unassigned) [Example 60, 2-[1-[2-(1H-Indazol-5-yl)-6-methyl-4-oxo-chromen-8-yl]ethylamino]benzoic acid] | < 50 | 500 to 1000 | < 500
12 | Cc1cc(C(C)Nc2ccccc2C(=O)O)c2oc(-c3ccc4[nH]nc(C)c4c3)cc(=O)c2c1 (single isomer, unassigned) [Example 61, 2-[1-[6-Methyl-2-(3-methyl-1H-indazol-5-yl)-4-oxo-chromen-8-yl]ethylamino]benzoic acid] | 50 to 100 | 500 to 1000 | < 500
13 | Cc1cc(C(C)Nc2ccccc2C(=O)O)c2oc(-c3ccc4cn[nH]c4c3)cc(=O)c2c1 (single isomer, unassigned) [Example 63, 2-[1-[2-(1H-Indazol-6-yl)-6-methyl-4-oxo-chromen-8-yl]ethylamino]benzoic acid] | < 50 | 500 to 1000 | < 500
14 | Cc1cc(C(C)Nc2ccccc2C(=O)O)c2oc(-c3ccc4c(c3)OC(F)(F)O4)cc(=O)c2c1 (single isomer, unassigned) [Example 64, 2-[1-[2-(2,2-Difluoro-1,3-benzodioxol-5-yl)-6-methyl-4-oxo-chromen-8-yl]ethylamino]benzoic acid] | < 50 | 1000 to 5000 | < 500
15 | Cc1cc(C(C)Nc2ccccc2C(=O)O)c2oc(-c3ccc4[nH]c(C)nc4c3)cc(=O)c2c1 (single isomer, unassigned) [Example 65, 2-[1-[6-Methyl-2-(2-methyl-1H-benzimidazol-5-yl)-4-oxo-chromen-8-yl]ethylamino]benzoic acid] | 100 to 500 | 1000 to 5000 | < 500
16 | Cc1cc(C(C)Nc2ccccc2C(=O)O)c2oc(-c3cc4ccccc4[nH]3)cc(=O)c2c1 (single isomer, unassigned) [Example 68, 2-[1-[2-(1H-Indol-2-yl)-6-methyl-4-oxo-chromen-8-yl]ethylamino]benzoic acid] | < 50 | 500 to 1000 | < 500
17 | Cc1cc(C(C)Nc2ccccc2C(=O)O)c2oc(-c3ccc4nc(C(F)(F)F)cn4c3)cc(=O)c2c1 (single isomer, unassigned) [Example 70, 2-[1-[6-Methyl-4-oxo-2-[2-(trifluoromethyl)imidazo[1,2-a]pyridin-6-yl]chromen-8-yl]ethylamino]benzoic acid] | 50 to 100 | 1000 to 5000 | < 500
18 | Cc1cc(C(C)Nc2ccccc2C(=O)O)c2oc(-c3cnc4cc[nH]c4c3)cc(=O)c2c1 (single isomer, unassigned) [Example 71, 2-[1-[6-Methyl-4-oxo-2-(1H-pyrrolo[3,2-b]pyridin-6-yl)chromen-8-yl]ethylamino]benzoic acid] | 100 to 500 | 1000 to 5000 | < 500
19 | Cc1cc(C(C)Nc2ccccc2C(=O)O)c2oc(-c3ccc4nc(C)sc4c3)cc(=O)c2c1 (single isomer, unassigned) [Example 74, 2-[1-[6-Methyl-2-(2-methyl-1,3-benzothiazol-6-yl)-4-oxo-chromen-8-yl]ethylamino]benzoic acid] | < 50 | 500 to 1000 | < 500
